Laboratory results taken from patent publication US6656931B2, “Vasopressin antagonist and diuretic combination” (Wyeth Holdings Corporation, priority 1999, dated 2003).
Read-outs that look alike come from different tables or passages of the source. Each block holds one compound with its values, some of them ahead of it.

Legend:
[1] = system: renal function in anesthetized rats; settings: for urine flow rate / urine osmolality / Na+ excretion / free water clearance: anesthetized rats; for glomerular filtration rate (GFR): rat, in vivo
Experimental: NaCl reabsorption in the thick ascending limb of the Loop of Henle (TALH) creates free water that is reabsorbed in the collecting duct in the presence of vasopressin. […] Either V (3 mg/kg), F (5 mg/kg), both V and F (V/F) or the vehicles were administered intraduodenally.

[2] = Human single dose crossover drug interaction study, pharmacokinetics; type: in vivo
Experimental: (§1) The study lasted approximately 30 days, and included a pre-enrollment evaluation of up to 2 weeks before dose administration, and three 2-day (2-night) confinement periods. The doses were separated by at least a 1 week interval. The clinical portion of the study was completed in approximately 2 months.
(§2) The VPA-985 suspension (25 mg and 50 mg powder reconstituted) was administered in 150 mL of Sprite® brand lemon-lime soda (a product of The Coca-Cola Company) followed by 100 mL of room-temperature water (250 mL of fluid total).
(§3) Areas under concentration-time curves(AUCT) (AUC) and AUC truncated at the last observed concentration (CT)AUCT) were determined by using the linear/log trapezoidal method. Statistical comparisons were made using by an analysis of variance (ANOVA). Confidence limits (90%) for pharmacokinetic parameters were constructed on a log scale using the two one-sided tests procedure. An interaction was judged to be significant if a 35% difference was detected between either single agent and the two drugs administered concomitantly.

healthy men = assay: Human single dose crossover drug interaction study, pharmacodynamics (urine flow, electrolytes); type: in vivo; settings: for mean urine volume: 0 to 4 h interval, single oral doses VPA-985 75 mg; for mean urine volume / peak urine flow: furosemide 40 mg, or both; for peak urine flow: single oral doses: VPA-985 75 mg
Experimental: as §1, §2, §3

[3] = after intraduodenal administration (V 3 mg/kg, F 5 mg/kg)
[4] = baseline, before compound administration
[5] = after coadministration with VPA-985 75 mg
[6] = VPA-985 75 mg administered with furosemide 40 mg

- glomerular filtration rate (GFR) [1]: 1.87 ± 0.15 mL/min
- CLr of furosemide, versus furosemide alone [2, 5]: no difference
- amount of furosemide recovered from urine (Ut), versus furosemide alone [2, 5]: no difference
- serum potassium (healthy men; at 0 h): 4.2 mmol/L
- serum potassium (healthy men; at 4 hours after the dose): 3.9 mmol/L
Structure (SMILES): NS(=O)(=O)c1cc(C(=O)O)c(NCc2ccco2)cc1Cl [furosemide, reference compound]
- urine flow rate [1, 3]: 17.02 ± 4.86 µL/min
- urine osmolality [1, 3]: 699±69 mOsm/kg
- urine flow rate [1, 4]: 3.74 ± 0.18 µL/min
- urine osmolality [1, 4]: 1515±96 mOsm/kg
- mean urine volume (healthy men): 1524 mL
- peak urine flow (healthy men; healthy men): 9.3 mL/min

- glomerular filtration rate (GFR) [1]: 2.04 ± 0.15 mL/min
- AUCs of VPA-985, compared to VPA-985 alone [2, 6]: no differences
- Cmax of VPA-985, compared to VPA-985 alone [2, 6]: no differences
- AUC ([2]; male, human, in vivo, single oral dose VPA-985 75-mg suspension alone, healthy men): 968 ng·h/mL
- Cmax ([2]; male, human, in vivo, single oral dose VPA-985 75-mg suspension alone, healthy men, read-out: mean peak concentration (Cmax) of VPA-985): 617 ng/mL
- Tmax ([2]; male, human, in vivo, single oral dose VPA-985 75-mg suspension alone, healthy men, read-out: mean time of peak concentration (tmax) of VPA-985): < 1 h
- effect on serum potassium (healthy men; single oral dose VPA-985 75 mg alone): did not alter
Structure (SMILES): Cc1ccc(F)cc1C(=O)Nc1ccc(C(=O)N2Cc3cccn3Cc3ccccc32)c(Cl)c1 [VPA-985, N-[4-(5H-pyrrolo[2,1-c][1,4]benzodiazepin-10(11H)ylcarbonyl)-3-chlorophenyl]-5-fluoro-2-methyl-benzamide]
- Na+ excretion [1, 3]: 0.67±0.34 μEq/min
- free water clearance [1, 3]: -6.96 ± 5.17 µL/min
- urine flow rate [1, 3]: 19.51 ± 3.80 µL/min
- urine osmolality [1, 3]: 571±145 mOsm/kg
- Na+ excretion [1, 4]: 0.10±0.02 μEq/min
- free water clearance [1, 4]: -17.31 ± 1.84 µL/min
- urine flow rate [1, 4]: 5.26 ± 1.13 µL/min
- urine osmolality [1, 4]: 1456±166 mOsm/kg
- mean urine volume (healthy men): 1157 mL
- increase in mean serum sodium (healthy men; 0 to 4 hours after the dose): 2 mmol/L
- 0 to 4 h urinary excretion of sodium, potassium, chloride and magnesium (healthy men; VPA-985 alone compared with VPA-985 and furosemide administered concomitantly): significantly less
- tmax of peak effect in urine flow (healthy men; after administration of single doses, healthy men): approximately 1.5 h
- peak urine flow (healthy men; healthy men): 8.4 mL/min
